Assay results as given in patent publication US20100143277A1, “Skin Lightening Compositions with Acetylcholinesterase Inhibitors” (priority 2008, published 2010).
“And” between values parts separate entries of the source, which are not always exact repeats. Equal entries are not always repeated. Marks after values point to notes of the source that are not given here.

System: human epidermal melanocytes from dark human neonatal foreskin (HEMn-DP)
Assay: Quantification of total melanin in cultured melanocytes after 72 hours treatment
Assay type: cell-based
Conditions: for Mean mg melanin/100K cells: mean of triplicate; for mg melanin/100K cells: single replicate well, normalized to cell number
Experimental: Monolayer cultures were initiated from cryopreserved cultures of human epidermal melanocytes from dark human neonatal foreskin (HEMn-DP; C-202-5C; Cascade Biologics™), according to the manufacturer's instructions. Cells were cultured in Medium 254 (M-254-500, Cascade Biologics) supplemented with Human Melanocyte Growth Supplement (HMGS; S-0002-5, Cascade Biologics). Stocks of these cultures were generated and stored in Sythn-a-Freeze® cryopreservation media (R-005-50. Cascade Biologics) in liquid nitrogen at passage 2.
For use in assays, cells were thawed according to manufacturer's instructions, and subcultured to increase cell numbers as required. Cells were then plated into 6-well plates at ˜200,000 cells per well and incubated at 37° C., 5% CO2, and were used in assays at passage 4.
Once the melanocytes had adhered to the 6-well plate's (approx. 4-6 hr.), the medium was replaced with Medium 254 containing Human Melanocyte Growth Supplement PMA-free (HMGS-2; S-016-5 hereafter termed depleted media) for approximately 16 hours, or overnight, prior to treatment with the actives.
To develop the screening assay a variety of cell concentrations and incubation times were tested to obtain optimized measurable levels of melanin. During this process no materials were applied to the cells. In addition a standard melanin (M8631, Sigma Aldrich) stock solution was prepared in Solvable™ reagent (5NE9100, Perkin Elmer) to obtain a standard curve for evaluating levels of melanin extracted from cells using a spectrophotometer. Method development was performed to obtain the optimum time required to solubilize the melanin into solution without degradation and a reduction in color.
All stocks of active materials were diluted in DMSO, ethanol or media, before further dilution in depleted media. Treatments were applied to the cells in 6-well plates in triplicate for 72 hours after which time the cells were harvested. Appropriate solvent controls in triplicate were incorporated into each assay.
After 72 hours, media was removed form the cells and the cells were washed once in Dulbecco's PBS. The PBS wash was removed and discarded and care being taken to ensure that all excess PBS was removed as far as possible. 1 mL trypsin-EDTA solution (R-001-100, Cascade Biologicsm) was added and cells incubated at room temperature for ˜1 minute. Microscopic observation was carried out to ensure all cells had detached from the plate. The resulting cell suspension was transferred to a 1.5 mL Eppendorf tube, 50 μL was removed for a cell count (Beckman coulter counter), and the remaining suspension was centrifuged at 13,000 rpm for 5 minutes. The supernatant was discarded and the cell pellets were frozen at −20° C.
The cell pellets were thawed at room temperature, and each pellet was re-suspended in 75 μL Solvable™ reagent (6NE9100, Perkin Elmer). Each tube was vortexed briefly, before incubating in a water bath at 60° C. for 1 hour. After the 1 hour incubation, each tube was vortexed and then centrifuged at 13,000 rpm for 15 minutes. The supernatant containing the extracted melanin was transferred to a 96 well plate and the absorbance at 490 nm recorded on a Dynex MRX-II plate reader.
Each ingredient was tested in triplicate and compared against the relevant vehicle control. The total amount of melanin extracted was calculated from a melanin standard curve. All resultant data was normalized to the total number of the cells in the sample. Data was subjected to the F-test for variance, followed by Student's t-test (assuming equal or unequal variance depending on results of the F-test.

COc1ccc2c3c1O[C@H]1C[C@@H](O)C=C[C@@]31CCN(C)C2 [Galanthamine, galanthamine]
Mean mg melanin/100K cells (0.1 μM): 24.0^e mg melanin/100K cells | mg melanin/100K cells (0.1 μM): 21.2 mg melanin/100K cells and 26.7 mg melanin/100K cells and 23.9 mg melanin/100K cells | Mean mg melanin/100K cells (1 μM): 19.4^d mg melanin/100K cells | mg melanin/100K cells (1 μM): 21.0 mg melanin/100K cells and 18.6 mg melanin/100K cells and 18.5 mg melanin/100K cells | Mean mg melanin/100K cells (10 μM): 23.4^c mg melanin/100K cells | mg melanin/100K cells (10 μM): 23.3 mg melanin/100K cells and 23.7 mg melanin/100K cells and 23.0 mg melanin/100K cells
